Results taken from paper PMC10424183, “Determination of Ligand-Binding Affinity (Kd) Using Transverse Relaxation Rate (R2) in the Ligand-Observed ^1H NMR Experiment and Applications to Fragment-Based Drug Discovery” (Journal of Medicinal Chemistry, 2023).
Like-named read-outs stand apart in the source and are kept apart here.

Columns and labels:
CRBN/DDB1 complex [1] = target: T1, CRBN/DDB1 complex (Homo sapiens, UniProt Q96SW2); assay: R2 values of fragment hits at two ligand concentrations (preliminary ranking); format: binding; conditions: 2 μM CRBN/DDB1 complex; for average R2, compound at 50 μM: 50 μM ligand; for average R2, compound at 200 μM: 200 μM ligand; for average R2, differences: R2 at 50 μM minus R2 at 200 μM
T1 construct: made in house
Description: (§1) Here, we present how we used the R2KD assay to triage fragment hits against the CRBN/DDB1 complex. The CRBN/DDB1 complex is part of the E3 ligase system, with its thalidomide-binding domain (TBD) pocket critical for recruiting its substrate protein.[20] […] The R2 values of these fragments were measured at two ligand concentrations (200 and 50 μM) against 2 μM of the CRBN/DDB1 complex. This enabled preliminary ranking of hits. The hits with larger R2 differences rank higher. […] We also determined IC50 of the top 10 fragments using a FP based biochemical assay.[17]
(§2) The T2 relaxation experiment was acquired using pulse program CPMG with 3-9-19 pulse sequence with gradients incorporated to suppress the water signal.[22] Extra water suppression was achieved by adding presaturation during D1. The spin-echo period (delay-180°-delay) was set to 1 msec (d20 is 500 μs), and the relaxation delay (d1) was set to 10 s. The pseudo-2D experiment contained nine slices with spin-echo period repeated the following times: 4, 20, 100, 200, 300, 500, 700, 1000, and 2000.

ERAP1 [2] = target: T2, ERAP1 (Homo sapiens, UniProt Q9NZ08); assay: R2KD ligand-observed 1H NMR assay (Kd from transverse relaxation rate R2); format: binding; conditions: repeated three times (average)
T2 construct: made in house
Description: (§3) Four aqueous stock solutions were prepared in Eppendorf Safe-Lock tubes (Cat no. 0030120094) by manual pipetting: (1) ligand aqueous stock solution was prepared by adding 50 mM ligand DMSO-d6 solution to aqueous buffer; (2) dimethyl sulfoxide (DMSO) aqueous stock solution was prepared by adding the same volume of DMSO-d6 as ligand DMSO-d6 solution to aqueous buffer; (3) protein aqueous stock solution was prepared by adding protein solution to aqueous buffer; and (4) aqueous solution was the buffer used in the assay.
Samples were prepared on a Bruker SamplePro-Tube liquid handler by mixing different volume of the four aqueous stocks in 96-well microplates (Greiner 650201) and then transferred to 3 mm NMR tubes (Figure 2). 10 samples were prepared: samples 1–8 containing increasing ligand concentration (maintaining constant protein concentration); sample 9 and 10 containing only ligands at two different concentrations (protein absent). These two samples served as control samples to obtain the R2 values of free ligand. […]
Nonlinear regression analysis was carried out using GraphPad Prism 9.2.0. Equation 12 was defined in user-defined equations as: Y = 0.5α*((X + Kd + P) −sqrt((sqr(X + Kd + P)) – 4*P*X)) where Y was calculated from eq 13 and X is the total ligand concentration. […] CIs of parameters was calculated at 95% level using Asymmetrical (Profile-likelihood) CI.

ERAP1 [3] = target: T2, ERAP1; set-up: method as in PMID 31841350; conditions: known Ki from biochemical binding assay; cited from earlier work
CRBN/DDB1 complex [4] = target: T1, CRBN/DDB1 complex; assay: R2KD ligand-observed 1H NMR assay (Kd from transverse relaxation rate R2); format: binding
Description: 10 samples were prepared: samples 1–8 containing increasing ligand concentration (maintaining constant protein concentration); sample 9 and 10 containing only ligands at two different concentrations (protein absent). These two samples served as control samples to obtain the R2 values of free ligand. The final percentage of DMSO-d6 in all samples were identical to minimize possible impacts of DMSO-d6.
as §1, §2
Nonlinear regression analysis was carried out using GraphPad Prism 9.2.0. […] Three parameters: P, α, and Kd were in the equation with the initial value set at 1. […] CIs of parameters was calculated at 95% level using Asymmetrical (Profile-likelihood) CI.

CRBN/DDB1 complex [5] = target: T1, CRBN/DDB1 complex; assay: FP based biochemical assay; format: binding; conditions: top 10 fragments
Description: To determine the accuracy of Kd measured using the R2KD assay, we tested seven small molecule ligands (Figure 4) against three protein targets (BCL6, CRBN/DDB1 complex, and ERAP1) and compared their Kd values from the R2KD assay with known Ki values (Table 1) obtained in biochemical binding assays[15],[17],[18] or Kd value from the SPR binding assay.[19] We found good agreements between the Kd values and the Ki values, with most of them less than two-fold difference from those determined from biochemical or biophysical assays. […] We found the assay setup to be simple and positive controls unnecessary, making the approach suitable for new and challenging targets.
Here, we present how we used the R2KD assay to triage fragment hits against the CRBN/DDB1 complex. The CRBN/DDB1 complex is part of the E3 ligase system, with its thalidomide-binding domain (TBD) pocket critical for recruiting its substrate protein.[20] A fragment library, composed of around 1000 compounds, was screened using R2 relaxation edited ^1H-NMR experiments, with 19 fragments subsequently identified as competitive hits for the TBD pocket. The R2 values of these fragments were measured at two ligand concentrations (200 and 50 μM) against 2 μM of the CRBN/DDB1 complex. This enabled preliminary ranking of hits. The hits with larger R2 differences rank higher. […] We then measured the Kd values of the top 10 fragments using R2KD assay and confirmed the ranking order (Table 2). We also determined IC50 of the top 10 fragments using a FP based biochemical assay.[17]

CRBN/DDB1 complex [6] = target: T1, CRBN/DDB1 complex; conditions: known Ki from biochemical binding assay, Δ39CRBN/ΔBPBDDB1 complex; cited from earlier work
BCL6 BTB = target: T3, BCL6 BTB (Homo sapiens, UniProt P41182); assay: R2KD ligand-observed 1H NMR assay (Kd from transverse relaxation rate R2); format: binding
T3 construct: made in house
Description: as §3
Samples were prepared on a Bruker SamplePro-Tube liquid handler by mixing different volume of the four aqueous stocks in 96-well microplates (Greiner 650201) and then transferred to 3 mm NMR tubes (Figure 2). 10 samples were prepared: samples 1–8 containing increasing ligand concentration (maintaining constant protein concentration); sample 9 and 10 containing only ligands at two different concentrations (protein absent). These two samples served as control samples to obtain the R2 values of free ligand. The final percentage of DMSO-d6 in all samples were identical to minimize possible impacts of DMSO-d6.
The R2 values of four aromatic ^1H-NMR signals (Figure 3B) were experimentally determined (Figure 3C) and (R2,obs – R2F) * LT values were calculated using Excel and used as y-axis values in Prism, while ligand concentrations were plotted as the x-axis values (Figure 3D). All four NMR peaks were used to fit a global Kd with non-linear regression using a customized equation (see Experimental Section), while α values were fitted as an individual parameter for each peak (Figure 3E) as α values differ depending on the individual proton’s environment. While it was possible to fit Kd values using individual NMR peaks and then average the values (Figure 3F), we found using a global fitting algorithm increased robustness of curve fitting and better accommodated outliers in the data. The goodness of fit was judged by 95% confidence interval (CI) (profile likelihood) values and R squared value. The global Kd obtained here is close to the Ki value (54 vs 50 μM) although from our accuracy study, the differences can be larger (see section “Assay Accuracy”).
NMR data were collected at 298 K on a Bruker AVANCE NEO 600 MHz spectrometer, equipped with 5 mm TCI CryoProbe using Bruker Topspin 4.0. The T2 relaxation experiment was acquired using pulse program CPMG with 3-9-19 pulse sequence with gradients incorporated to suppress the water signal.[22] Extra water suppression was achieved by adding presaturation during D1. The spin-echo period (delay-180°-delay) was set to 1 msec (d20 is 500 μs), and the relaxation delay (d1) was set to 10 s. The pseudo-2D experiment contained nine slices with spin-echo period repeated the following times: 4, 20, 100, 200, 300, 500, 700, 1000, and 2000. The T2 relaxation experiment was processed using MestReNova 14.1, and Data Analysis Module of MestReNova was used to obtain integrals of individual ^1H-NMR signals, which were used to calculate R2 with equation I = I0exp (−tR2).
Nonlinear regression analysis was carried out using GraphPad Prism 9.2.0. Equation 12 was defined in user-defined equations as: Y = 0.5α*((X + Kd + P) −sqrt((sqr(X + Kd + P)) – 4*P*X)) where Y was calculated from eq 13 and X is the total ligand concentration. Three parameters: P, α, and Kd were in the equation with the initial value set at 1. In the default constraints setting, P was “constant equal to” the total protein concentration, Kd was “shared value for all data sets”, and α was “must be greater than […]”. CIs of parameters was calculated at 95% level using Asymmetrical (Profile-likelihood) CI.

BCL6 BTB domain = target: BCL6 BTB domain; set-up: method as in PMID 35657291; conditions: known Ki from TR-FRET binding assay; cited from earlier work
[7] = R2KD assay, Δ39CRBN/ΔBPBDDB1 complex, repeated three times (average), read-out: Kd
[8] = fragment hit triage, top 10 fragments, read-out: R2KD assay Kd
[9] = R2KD assay, repeated three times (average), read-out: Kd

T1 sequence (Q96SW2 40-442 limits assumed, species assumed, one chain of several): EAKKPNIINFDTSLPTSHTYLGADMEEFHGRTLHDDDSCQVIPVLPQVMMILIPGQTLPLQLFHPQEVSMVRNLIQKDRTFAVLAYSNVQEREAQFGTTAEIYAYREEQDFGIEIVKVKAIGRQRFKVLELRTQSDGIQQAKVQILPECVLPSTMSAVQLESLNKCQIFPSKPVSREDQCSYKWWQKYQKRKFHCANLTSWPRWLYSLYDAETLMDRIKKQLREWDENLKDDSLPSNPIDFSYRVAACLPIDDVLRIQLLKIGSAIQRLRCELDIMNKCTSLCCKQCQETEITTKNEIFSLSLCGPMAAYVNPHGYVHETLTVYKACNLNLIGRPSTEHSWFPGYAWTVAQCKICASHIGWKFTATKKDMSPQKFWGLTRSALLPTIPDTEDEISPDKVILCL
T2 sequence (Q9NZ08 whole entry, species assumed): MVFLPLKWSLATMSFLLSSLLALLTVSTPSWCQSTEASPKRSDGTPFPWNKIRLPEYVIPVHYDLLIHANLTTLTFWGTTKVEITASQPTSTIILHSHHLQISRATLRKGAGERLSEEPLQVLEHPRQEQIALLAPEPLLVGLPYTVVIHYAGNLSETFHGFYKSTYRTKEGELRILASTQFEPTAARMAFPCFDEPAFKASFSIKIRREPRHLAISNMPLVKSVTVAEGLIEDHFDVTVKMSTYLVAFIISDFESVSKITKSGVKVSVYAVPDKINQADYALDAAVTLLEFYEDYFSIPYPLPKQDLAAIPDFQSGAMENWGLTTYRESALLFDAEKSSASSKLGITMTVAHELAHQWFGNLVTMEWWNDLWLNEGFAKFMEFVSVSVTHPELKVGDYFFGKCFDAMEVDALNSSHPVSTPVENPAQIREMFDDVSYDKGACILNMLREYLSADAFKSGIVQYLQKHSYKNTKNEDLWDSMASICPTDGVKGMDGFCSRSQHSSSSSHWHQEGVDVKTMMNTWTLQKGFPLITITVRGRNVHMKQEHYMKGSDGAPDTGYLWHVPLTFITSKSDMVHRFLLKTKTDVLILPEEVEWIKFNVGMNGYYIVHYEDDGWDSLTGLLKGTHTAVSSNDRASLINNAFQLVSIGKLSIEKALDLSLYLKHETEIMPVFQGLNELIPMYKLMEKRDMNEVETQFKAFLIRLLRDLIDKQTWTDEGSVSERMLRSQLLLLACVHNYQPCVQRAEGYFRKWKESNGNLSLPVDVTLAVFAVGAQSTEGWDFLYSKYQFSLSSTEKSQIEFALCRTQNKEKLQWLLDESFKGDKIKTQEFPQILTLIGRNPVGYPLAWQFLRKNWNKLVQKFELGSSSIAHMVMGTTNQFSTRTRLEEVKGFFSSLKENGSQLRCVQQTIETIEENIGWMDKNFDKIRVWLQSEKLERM

average R2, compound at 50 μM (CRBN/DDB1 complex [1]) | average R2, compound at 200 μM (CRBN/DDB1 complex [1]) | average R2, differences (CRBN/DDB1 complex [1]) | Kd (CRBN/DDB1 complex [4]; [8]) [µM] | IC50 (CRBN/DDB1 complex [5]) [µM] | SMILES | other results
1.6 | 1.3 | 0.3 | – | – | N#CCCCn1c(=O)oc2ccc(Cl)cc21 [CCT242918] | –
1.2 | 1.1 | 0.1 | – | – | CC(=O)N1CCN(S(=O)(=O)c2ccc(C(C)C)cc2)CC1 [CCT240867] | –
7.2 | 2.6 | 4.6 | 72 | 153 | COC(=O)c1ccc2c(c1)NC(=O)CO2 [CCT240569] | Kd (CRBN/DDB1 complex [4]; [7]): 88 µM; Ki (CRBN/DDB1 complex [6]): 140 µM
3.8 | 2.5 | 1.2 | 532 | > 3000 | CC(=O)Nc1cc2c(cc1C(=O)C(C)C)OCCO2 [CCT242848] | –
2.5 | 2.1 | 0.5 | 1200 | 1370 | COc1cc2c(cc1OC)C(c1cccc(O)c1)CC(=O)N2 (centres unmarked) [CCT242858] | –
2 | 1.5 | 0.5 | 638 | > 3000 | Nc1ccc(C(=O)NCC2COc3ccccc3O2)cc1 (centres unmarked) [CCT240545] | –
1.5 | 1.3 | 0.2 | – | – | COc1ccc(C(=O)N2CCN(c3ccccn3)CC2)cc1 [CCT240246] | –
3.4 | 1.2 | 2.2 | 86 | 168 | O=c1ccn(Cc2ccccc2)c(=O)[nH]1 [CCT240207] | –

More lines, now with the values behind:

SMILES | average R2, compound at 50 μM (CRBN/DDB1 complex [1]) | average R2, compound at 200 μM (CRBN/DDB1 complex [1]) | average R2, differences (CRBN/DDB1 complex [1]) | Kd (CRBN/DDB1 complex [4]; [8]) [µM] | IC50 (CRBN/DDB1 complex [5]) [µM] | other results
O=C(c1ccc(F)cc1)N1CCN(c2ccccc2)CC1 [CCT240195] | 1.6 | 1.4 | 0.2 | – | – | –
O=C(O)c1cccc(S(=O)(=O)Nc2ccccc2N2CCCCC2)c1 [CCT369304] | – | – | – | – | – | Kd (ERAP1 [2]): 196 µM; Ki (ERAP1 [3]): 33 µM
CCOc1cccc(C2CC(=O)NC3=C2C(=O)CCC3)c1 (centres unmarked) [CCT228041] | 1.6 | 1.5 | 0.1 | – | – | –
N#CCCCN1C(=O)COc2ccc(Cl)cc21 [CCT228155] | 3 | 2.2 | 0.8 | 798 | 1640 | –
O=CN1CCN(Cc2cccc(Cl)c2)CC1 [CCT240121] | 3.8 | 3.3 | 0.4 | – | – | –
Cc1ccc(N2CC(=O)NC2=O)cc1 [CCT010354] | 4.9 | 2 | 2.9 | 122 | 240 | Kd (CRBN/DDB1 complex [4]; [7]): 156 µM; Ki (CRBN/DDB1 complex [6]): 294 µM
O=CN1CCN(Cc2c(F)cccc2Cl)CC1 [CCT240107] | 1.6 | 1.5 | 0.1 | – | – | –
CNC(=O)c1nc(-c2ccccc2)n(-c2ccccc2)n1 [CCT226703] | 1.5 | 1.4 | 0.1 | – | – | –
Cc1nccc(Nc2cnn(CCO)c2)c1C#N [CCT365133] | – | – | – | – | – | Kd (BCL6 BTB; 5 μM BCL6, average of Peaks 1-4, unit inferred, read-out: Kd, average of individual peak fits): 61 µM; Kd (BCL6 BTB; 5 μM BCL6, individual peak fit, unit inferred, read-out: Kd fitted using individual peak, Peak 1): 55 µM; Kd (BCL6 BTB; 5 μM BCL6, individual peak fit, unit inferred, read-out: Kd fitted using individual peak, Peak 2): 53 µM; Kd (BCL6 BTB; 5 μM BCL6, individual peak fit, unit inferred, read-out: Kd fitted using individual peak, Peak 3): 78 µM; Kd (BCL6 BTB; 5 μM BCL6, individual peak fit, unit inferred, read-out: Kd fitted using individual peak, Peak 4): 56 µM; Kd (BCL6 BTB; 5 μM protein, peak 3, read-out: Kd at 5 μM protein): 70 µM; Kd (BCL6 BTB; 25 μM protein, peak 3, read-out: Kd at 25 μM protein): 58 µM; Kd (BCL6 BTB; 35 μM protein, peak 3, read-out: Kd at 35 μM protein): 71 µM; Kd (BCL6 BTB; [9]): 51 µM; Kd (BCL6 BTB; ligand concentration increasing to 500 μM, no solubility limit, read-out: Kd, data set B): 68 µM; Kd of data set A relative to data set B (BCL6 BTB; limited solubility mimic versus full concentration series): around 10 fold; Kd (BCL6 BTB; simplified graphical presentation, unit inferred, read-out: KD, curve fitting using calculated bound ligand concentration [PL]): 57 µM; Kd (BCL6 BTB; single experiment, 5 μM BCL6, ligand 50-500 μM, four aromatic peaks, global Kd fitting, read-out: Kd, global (shared) fit): 54 µM; Ki (BCL6 BTB domain): 50 µM
CC[C@H](O)Cn1c(=O)n(C)c2ccc(Nc3ccnc(Cl)c3C#N)cc21 [CCT367090] | – | – | – | – | – | Kd (BCL6 BTB; [9]): 7 µM; Ki (BCL6 BTB domain): 4 µM
CCOc1ccc(C2CNC(=O)C2)cc1 (centres unmarked) [CCT239822] | 3.6 | 2.4 | 1.2 | 532 | 780 | –
